{"source": "patent US20220362299A1", "about": "“ENGINEERED NATURAL KILLER CELLS AND METHODS FOR USING THE SAME IN IMMUNOTHERAPY AND AUTOPHAGY INHIBITON TECHNIQUES” (Purdue Research Foundation, priority 2019, published 2022)", "key": {"GBM43 cells [1]": {"tested_on": "GBM43 cells", "test": "GBM43 cell viability after CQ treatment (CCK-8)", "type": "cell-based, human", "conditions": "24 h", "description": "Alternatively, autophagy was inhibited pharmacologically via treatment with chloroquine (CQ), a common FDA-approved autophagy inhibitor (see FIG. 11). These targeting approaches were tested on both NK cell infiltration and effector functions. For this approach, GBM43 cells were treated with different concentrations of CQ. To determine in vitro cell viability in response to CQ, GBM43 cells were seeded in 96-well plates at a density of 1×10^4 cells/well. After overnight culture, the cells were treated with different concentrations of CQ and incubated for another 24 hours. The cell viability was then determined with CCK-8 assay analysis."}, "GBM43 cells [2]": {"tested_on": "GBM43 cells", "test": "Killing of CQ-treated GBM43 cells by pNK cells", "type": "cell-based, human", "conditions": "E/T ratio 5, 4 h", "description": "GBM43 cells were first treated with CQ (varying concentrations), then collected and re-seeded into 96 wells. After overnight culture, the NK cells (NK92 control cells and pNK cells against BECN1^−GBM43) were added at an E/T ratio of 5 and co-incubated for 4 h.\nTo further investigate the impact of the inhibition of autophagy on the cytotoxic capacity of NK cells, CQ-treated GBM43 cells or BECN1^− GBM43 cells were incubated with pNK cells for 4 h at an E/T ratio of 5."}, "GBM43 cells [3]": {"tested_on": "GBM43 cells", "test": "Subcutaneous GBM43 xenograft model", "type": "in vivo, NSG mice", "description": "Subcutaneous GBM xenografts were established by inoculating NSG mice with 3×10^6 GBM43 cells in the right flank. Ten days later, when tumors reached a volume of about 80 mm^3, mice were randomly assigned to 5 groups (n=4/group) and treated according to one of the following protocols: (1) PBS only; (2) intravenous (IV) injection of 5×10^6 pNK cells alone; (3) intravenous (IV) injection of 5×10^6 CD73.mCAR-pNK cells alone (Construct 1); (4) intraperitoneal (IP) injection of CQ (50 mg/kg) alone. NK cells were administered once a week for three weeks. The mice receiving adoptive NK cells therapy (groups 2 and 3) also received IL-15 (0.5 μg/mice) by IP injection every 3-4 days. Tumor growth was followed by caliper measurements and tumor volumes were calculated using the formula: V=0.52×L×W×H as described above. Body weights of the mice were recorded throughout the treatment. At the end of the therapy, the mice were sacrificed and tumors were harvested for histologic (IHC/IF) analyses.\nImmunohistochemistry (IHC) and immunofluorescence (IF) staining were carried out at the Histology Research Laboratory at the Purdue University College of Veterinary Medicine (West Lafayette, Ind.). Briefly, the tumors were fixed in 10% neutral-buffered formalin, embedded in paraffin, and cut into 3-5 μm sections.\nCCL5 and CXCL10 expression in the tumors were detected through the staining using human CCL5/RANTES antibody and CXCL10 antibody respectively. The staining was evaluated based on the intensity (weak=1, moderate=2, and high=3) of chemokine immunostaining and the density (0%=0, 1-40%=1, 41-75%=2, >76%=3) of positive tumor cells. The final score of each sample was multiplied by the intensity and density.\nFor subcutaneous GBM43 xenografts, NK cell infiltration was investigated by IF staining performed with the following stains: Protein L (Alexa 647, far red), NKp46 (Alexa 488, green) and DAPI nuclear counterstain. CCL5 and CXCL10 expression were evaluated by IHC staining as described above. CD73 expression in the tumors was detected through the staining using human CD73 antibody.\nThe treatment schedule is summarized in FIG. 17, subpart A. Briefly, 3×10^6 GBM43 cells were subcutaneously (SC) implanted into the right flank of the mice (Day 0). 10 days later (Day 10), mice in the CQ group were intraperitoneally (IP) injected with CQ at 50 mg/kg for 3 weeks, once a week. One day later (Day 11), the mice in pNK and CD73.mCAR-pNK groups were treated with 5×10^6 adoptively-transferred pNK or CD73.mCAR-pNK cells intravenously (IV), once a week for 3 weeks. Starting on the day of the first injection of NK cells, all mice received 0.5 μg of IL-15 once every 3-4 days IP."}, "GBM43 cells [4]": {"tested_on": "GBM43 cells", "test": "ELISA of CCL5 and CXCL10 in supernatant of GBM43 cells", "type": "cell-based, human", "conditions": "CQ 50 μM, 24 h", "source_text": "To evaluate changes in the protein levels of these chemokines and gain more insight into the underlying molecular mechanisms, chemokine concentrations were quantified in the conditioned media of CQ-treated GBM43 cells using ELISA in absence and presence of various pharmacological inhibitors driving signaling pathways for these chemokines. This included the PI3K inhibitor LY294002, NF-κB inhibitor BAY11-7082 and JNK inhibitor SP600125.\nMore specifically, to measure secreted CCL5 and CXCL10, GBM43 cells were treated with CQ at a final concentration of 50 μM in presence or absence of various small molecule inhibitors, including LY294002, BAY11-7082 and SP600125 for 24 hours. Supernatants were collected and the levels of CCL5 and CXCL10 were quantified using Human CCL5 and CXCL10 Biolegend-ELISA MAX™ Deluxe Sets according to the manufacturer's directions. To look at the levels of multiple chemokines secretion from GBM43 cells, the cell culture supernatants were also collected and all the selected targets were determined with the chemokine array provided by Eve Technologies (Calgary, Canada)."}, "GBM": {"tested_on": "GBM", "conditions": "chronic administration, controlled randomized trial / Phase III, diphosphate salt, cited from earlier work"}, "GBM43 cells [5]": {"tested_on": "GBM43 cells", "test": "Chemokine mRNA in GBM43 cells by RT-PCR", "type": "cell-based, human", "conditions": "vs control", "description": "Total RNAs were extracted using the mirVana™ miRNA Isolation Kit and the concentrations determined with a Qubit 4 Fluorometer. The RNA (80 ng) from each sample was reverse-transcribed using the qScript™ One-Step SYBR® Green qRT-PCR kit in a ViiA-7 RT-PCR system (Thermo Fisher Scientific, Waltham, Mass.). The GAPDH gene was used as the endogenous control. The comparative Ct values of genes of interest were normalized to the Ct value of GAPDH. The 2^−Δct method was used to determine the relative expression of the genes, while the 2^−ΔΔct method was used to calculate fold changes of gene expression over control."}}, "note": "Where two headings read alike, the source gives them in different places."}
{"substance": "Chloroquine diphosphate salt [CQ]", "values": [{"measurement": "IC50", "setting": "GBM43 cells [1]", "value": 67.1, "unit": "µM"}, {"measurement": "killing of CQ-treated GBM43 cells by human NK cells", "setting": "GBM43 cells [2]", "value": "sensitize GBM cells to superior killing"}, {"measurement": "mean tumor volume", "setting": "GBM43 cells [3]; NK cells 5×10^6 IV once a week for 3 weeks, CQ 50 mg/kg IP, PBS group 1475", "value": 953.25, "unit": "mm^3"}, {"measurement": "CCL5 in tumor tissues (IHC)", "setting": "GBM43 cells [3]; mouse, in vivo", "value": "significantly higher presence"}, {"measurement": "CXCL10 in tumor tissues (IHC)", "setting": "GBM43 cells [3]; mouse, in vivo", "value": "significantly higher presence"}, {"measurement": "mean tumor weight", "setting": "GBM43 cells [3]; necropsy day 28 post-start of treatment, PBS group 2.31", "value": 1.16, "unit": "g"}, {"measurement": "expression of CD73 on tumors (IHC)", "setting": "GBM43 cells [3]; vs other treatment groups", "value": "lower level"}, {"measurement": "secreted CCL5 vs untreated control cells", "setting": "GBM43 cells [4]", "value": "significantly higher amounts"}, {"measurement": "secreted CXCL10 vs untreated control cells", "setting": "GBM43 cells [4]", "value": "significantly higher amounts"}, {"measurement": "response of GBM to antineoplastic therapy with added chloroquine", "setting": "GBM", "value": "enhance clinical responses"}, {"measurement": "response of GBM to antineoplastic therapy with added chloroquine", "setting": "GBM; listed as chloroquine (CQ)", "value": "significantly enhanced response"}, {"measurement": "CCL5 mRNA in GBM43 cells", "setting": "GBM43 cells [5]; CQ-treated", "value": "substantial upregulation"}, {"measurement": "CXCL10 mRNA in GBM43 cells", "setting": "GBM43 cells [5]; CQ-treated", "value": "substantial upregulation"}, {"measurement": "CCL2 mRNA in GBM43 cells", "setting": "GBM43 cells [5]; inhibition of autophagy", "value": "decreased transcriptional levels"}, {"measurement": "CXCL12 mRNA in GBM43 cells", "setting": "GBM43 cells [5]; inhibition of autophagy", "value": "decreased transcriptional levels"}]}
